Measurements as given in ChEMBL document CHEMBL5465560, “Selectivity Literature for EUbOPEN Chemogenomic Library” (2024).
Values belong to the molecule of their own block, whether it stands above or below them.

What was measured:
[1] = target: T1, Ephrin type-B receptor 2 (Homo sapiens) (UniProt P29323); experiment: Selectivity interaction (KinomeScan (DiscoverX)) EUB0000595a EPHB2; details: at 10 µM
T1 sequence (whole entry): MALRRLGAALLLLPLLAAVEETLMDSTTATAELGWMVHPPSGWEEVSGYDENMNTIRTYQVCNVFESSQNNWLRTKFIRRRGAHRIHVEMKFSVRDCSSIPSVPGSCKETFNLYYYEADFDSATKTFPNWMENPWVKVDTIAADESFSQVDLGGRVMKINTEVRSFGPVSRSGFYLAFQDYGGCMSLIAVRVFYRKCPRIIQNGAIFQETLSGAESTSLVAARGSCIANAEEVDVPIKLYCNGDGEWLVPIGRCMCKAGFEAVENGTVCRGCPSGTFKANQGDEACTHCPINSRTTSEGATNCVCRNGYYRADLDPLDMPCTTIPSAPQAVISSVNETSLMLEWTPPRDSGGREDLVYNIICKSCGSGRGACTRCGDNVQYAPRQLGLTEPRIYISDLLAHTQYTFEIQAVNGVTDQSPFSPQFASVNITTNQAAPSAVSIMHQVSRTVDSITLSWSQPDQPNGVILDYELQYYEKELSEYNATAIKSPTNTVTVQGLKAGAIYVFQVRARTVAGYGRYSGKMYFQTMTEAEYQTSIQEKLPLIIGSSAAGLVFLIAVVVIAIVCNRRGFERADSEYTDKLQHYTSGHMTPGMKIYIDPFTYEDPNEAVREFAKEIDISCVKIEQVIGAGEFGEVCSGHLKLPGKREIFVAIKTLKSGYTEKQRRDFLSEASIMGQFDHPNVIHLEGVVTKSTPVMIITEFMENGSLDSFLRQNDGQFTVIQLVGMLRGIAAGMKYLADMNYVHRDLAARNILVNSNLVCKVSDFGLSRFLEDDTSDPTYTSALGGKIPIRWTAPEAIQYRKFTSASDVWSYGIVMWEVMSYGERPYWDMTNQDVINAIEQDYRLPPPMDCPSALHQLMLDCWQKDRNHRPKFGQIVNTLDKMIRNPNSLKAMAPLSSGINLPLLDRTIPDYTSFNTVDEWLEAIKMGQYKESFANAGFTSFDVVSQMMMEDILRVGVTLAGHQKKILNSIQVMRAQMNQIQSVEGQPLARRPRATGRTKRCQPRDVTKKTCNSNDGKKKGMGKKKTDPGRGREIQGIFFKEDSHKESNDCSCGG

[2] = target: Calcium/calmodulin-dependent protein kinase type II subunit beta (Homo sapiens) (UniProt Q13554); experiment: Selectivity interaction (KinomeScan (DiscoverX)) EUB0000595a CAMK2B; details: at 10 µM
[3] = target: T2, Ephrin type-A receptor 3 (Homo sapiens) (UniProt P29320); experiment: Selectivity interaction (KinomeScan (DiscoverX)) EUB0001079a EPHA3; details: at 1 µM
T2 sequence (whole entry): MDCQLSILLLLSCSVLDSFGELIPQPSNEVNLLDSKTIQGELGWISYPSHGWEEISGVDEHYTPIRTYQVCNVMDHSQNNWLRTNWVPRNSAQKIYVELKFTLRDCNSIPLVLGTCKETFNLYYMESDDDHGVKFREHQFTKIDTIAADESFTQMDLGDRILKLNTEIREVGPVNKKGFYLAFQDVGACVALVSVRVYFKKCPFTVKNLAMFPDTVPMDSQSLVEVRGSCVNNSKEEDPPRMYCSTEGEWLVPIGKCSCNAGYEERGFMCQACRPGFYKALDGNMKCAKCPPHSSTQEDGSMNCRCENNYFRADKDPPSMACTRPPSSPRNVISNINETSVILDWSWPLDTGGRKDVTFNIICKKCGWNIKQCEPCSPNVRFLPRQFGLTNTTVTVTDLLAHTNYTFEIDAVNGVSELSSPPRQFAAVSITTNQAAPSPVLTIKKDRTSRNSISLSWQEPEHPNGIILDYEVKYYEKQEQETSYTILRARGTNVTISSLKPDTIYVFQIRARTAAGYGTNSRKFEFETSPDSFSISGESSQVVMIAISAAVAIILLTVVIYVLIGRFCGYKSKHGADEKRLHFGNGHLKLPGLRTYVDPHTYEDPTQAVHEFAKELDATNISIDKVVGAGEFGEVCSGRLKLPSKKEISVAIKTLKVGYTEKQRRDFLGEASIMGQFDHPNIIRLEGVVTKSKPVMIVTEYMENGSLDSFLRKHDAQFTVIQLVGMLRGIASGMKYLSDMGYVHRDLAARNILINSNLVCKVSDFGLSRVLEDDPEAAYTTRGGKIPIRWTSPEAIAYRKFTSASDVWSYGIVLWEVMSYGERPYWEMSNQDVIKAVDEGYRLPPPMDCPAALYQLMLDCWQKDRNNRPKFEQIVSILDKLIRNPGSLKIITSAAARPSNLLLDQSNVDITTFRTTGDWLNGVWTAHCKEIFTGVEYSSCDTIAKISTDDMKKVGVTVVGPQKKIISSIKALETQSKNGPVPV

[4] = target: Hepatocyte growth factor receptor (Homo sapiens, UniProt P08581); experiment: (§1) Selectivity interaction (KinomeScan (DiscoverX)) EUB0000311b MET; details: at 1 µM
[5] = tested on: Hepatocyte growth factor receptor (Homo sapiens), P08581 [M1250T]; experiment: as §1; details: at 1 µM
[6] = target: T3, Mitogen-activated protein kinase kinase kinase kinase 2 (Homo sapiens) (UniProt Q12851); experiment: Selectivity interaction (KinomeScan (DiscoverX)) EUB0000666a MAP4K2; details: at 10 µM
T3 sequence (whole entry): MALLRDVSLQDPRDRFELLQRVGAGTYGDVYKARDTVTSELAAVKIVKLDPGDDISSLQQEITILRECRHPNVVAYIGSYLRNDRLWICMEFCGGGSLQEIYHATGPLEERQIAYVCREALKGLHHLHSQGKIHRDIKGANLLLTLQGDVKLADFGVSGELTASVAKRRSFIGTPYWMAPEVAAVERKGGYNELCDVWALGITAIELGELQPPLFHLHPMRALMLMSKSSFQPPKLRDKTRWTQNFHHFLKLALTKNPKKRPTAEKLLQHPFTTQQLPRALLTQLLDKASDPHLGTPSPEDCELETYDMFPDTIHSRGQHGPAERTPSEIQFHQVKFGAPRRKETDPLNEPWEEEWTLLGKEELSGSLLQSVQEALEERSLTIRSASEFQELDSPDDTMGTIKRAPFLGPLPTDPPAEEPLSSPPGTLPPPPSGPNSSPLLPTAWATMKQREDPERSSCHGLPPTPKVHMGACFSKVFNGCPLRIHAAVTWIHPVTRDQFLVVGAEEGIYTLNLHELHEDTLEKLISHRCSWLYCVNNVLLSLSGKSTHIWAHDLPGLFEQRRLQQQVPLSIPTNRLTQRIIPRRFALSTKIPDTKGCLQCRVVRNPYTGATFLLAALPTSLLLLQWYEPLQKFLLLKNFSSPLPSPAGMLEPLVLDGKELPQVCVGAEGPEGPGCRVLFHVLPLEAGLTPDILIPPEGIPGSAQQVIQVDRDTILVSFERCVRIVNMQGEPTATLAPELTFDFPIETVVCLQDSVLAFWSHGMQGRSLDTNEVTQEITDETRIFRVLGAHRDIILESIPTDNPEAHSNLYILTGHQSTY

Calcium/calmodulin-dependent protein kinase type II subunit beta (Homo sapiens), sequence (Q13554 whole entry): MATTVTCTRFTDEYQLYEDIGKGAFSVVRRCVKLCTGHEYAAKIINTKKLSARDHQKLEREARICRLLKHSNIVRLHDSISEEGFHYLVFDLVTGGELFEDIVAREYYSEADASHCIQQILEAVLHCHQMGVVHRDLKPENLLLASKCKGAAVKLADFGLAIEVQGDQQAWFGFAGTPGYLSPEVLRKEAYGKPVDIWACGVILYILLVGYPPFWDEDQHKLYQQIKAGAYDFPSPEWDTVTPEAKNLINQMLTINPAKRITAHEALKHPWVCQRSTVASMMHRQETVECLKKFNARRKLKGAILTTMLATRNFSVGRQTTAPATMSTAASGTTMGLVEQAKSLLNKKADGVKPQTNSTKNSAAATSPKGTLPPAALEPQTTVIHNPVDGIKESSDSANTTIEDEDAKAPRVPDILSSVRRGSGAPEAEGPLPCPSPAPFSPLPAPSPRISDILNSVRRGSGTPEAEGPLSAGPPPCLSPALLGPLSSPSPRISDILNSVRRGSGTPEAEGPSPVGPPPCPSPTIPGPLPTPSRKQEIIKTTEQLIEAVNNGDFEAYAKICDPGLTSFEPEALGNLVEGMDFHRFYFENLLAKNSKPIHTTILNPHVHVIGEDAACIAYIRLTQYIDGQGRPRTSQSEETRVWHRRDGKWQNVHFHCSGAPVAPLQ
Hepatocyte growth factor receptor (Homo sapiens), P08581 [M1250T], sequence (P08581 whole entry M1250T): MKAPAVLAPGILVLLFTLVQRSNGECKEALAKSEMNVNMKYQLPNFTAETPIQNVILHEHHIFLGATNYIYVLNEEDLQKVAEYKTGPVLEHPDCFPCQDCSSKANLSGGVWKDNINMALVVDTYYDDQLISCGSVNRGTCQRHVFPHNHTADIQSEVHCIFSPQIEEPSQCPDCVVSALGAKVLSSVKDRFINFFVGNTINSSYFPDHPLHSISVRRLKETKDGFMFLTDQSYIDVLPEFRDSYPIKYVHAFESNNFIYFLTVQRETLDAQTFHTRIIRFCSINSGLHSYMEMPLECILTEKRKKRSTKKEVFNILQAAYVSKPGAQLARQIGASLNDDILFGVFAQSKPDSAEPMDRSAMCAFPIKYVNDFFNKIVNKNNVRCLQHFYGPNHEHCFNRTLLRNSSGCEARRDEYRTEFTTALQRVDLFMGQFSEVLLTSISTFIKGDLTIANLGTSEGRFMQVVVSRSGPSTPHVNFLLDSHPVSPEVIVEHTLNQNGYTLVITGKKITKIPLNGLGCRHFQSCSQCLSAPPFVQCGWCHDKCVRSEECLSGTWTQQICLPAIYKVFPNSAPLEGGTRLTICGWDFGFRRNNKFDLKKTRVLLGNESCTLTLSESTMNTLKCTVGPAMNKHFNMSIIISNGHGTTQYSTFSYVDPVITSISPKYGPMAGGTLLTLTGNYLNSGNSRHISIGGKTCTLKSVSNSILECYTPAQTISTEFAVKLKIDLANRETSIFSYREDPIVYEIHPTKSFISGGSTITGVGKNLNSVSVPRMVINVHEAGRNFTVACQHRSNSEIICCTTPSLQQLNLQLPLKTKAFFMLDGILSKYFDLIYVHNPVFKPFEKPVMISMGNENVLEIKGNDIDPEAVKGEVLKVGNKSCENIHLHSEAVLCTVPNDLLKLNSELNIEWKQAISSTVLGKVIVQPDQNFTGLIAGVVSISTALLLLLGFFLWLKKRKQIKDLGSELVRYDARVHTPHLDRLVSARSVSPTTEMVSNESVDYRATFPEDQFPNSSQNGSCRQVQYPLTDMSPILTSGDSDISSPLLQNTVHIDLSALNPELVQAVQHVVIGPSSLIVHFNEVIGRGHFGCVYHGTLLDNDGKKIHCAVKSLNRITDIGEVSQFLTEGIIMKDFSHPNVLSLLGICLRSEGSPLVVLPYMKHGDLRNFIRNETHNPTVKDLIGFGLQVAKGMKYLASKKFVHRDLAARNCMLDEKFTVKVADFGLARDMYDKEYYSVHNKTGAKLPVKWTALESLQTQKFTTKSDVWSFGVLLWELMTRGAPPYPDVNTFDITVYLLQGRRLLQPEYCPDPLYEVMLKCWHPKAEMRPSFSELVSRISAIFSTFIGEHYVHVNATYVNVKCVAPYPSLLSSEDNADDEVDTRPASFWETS
Hepatocyte growth factor receptor, sequence (P08581 whole entry): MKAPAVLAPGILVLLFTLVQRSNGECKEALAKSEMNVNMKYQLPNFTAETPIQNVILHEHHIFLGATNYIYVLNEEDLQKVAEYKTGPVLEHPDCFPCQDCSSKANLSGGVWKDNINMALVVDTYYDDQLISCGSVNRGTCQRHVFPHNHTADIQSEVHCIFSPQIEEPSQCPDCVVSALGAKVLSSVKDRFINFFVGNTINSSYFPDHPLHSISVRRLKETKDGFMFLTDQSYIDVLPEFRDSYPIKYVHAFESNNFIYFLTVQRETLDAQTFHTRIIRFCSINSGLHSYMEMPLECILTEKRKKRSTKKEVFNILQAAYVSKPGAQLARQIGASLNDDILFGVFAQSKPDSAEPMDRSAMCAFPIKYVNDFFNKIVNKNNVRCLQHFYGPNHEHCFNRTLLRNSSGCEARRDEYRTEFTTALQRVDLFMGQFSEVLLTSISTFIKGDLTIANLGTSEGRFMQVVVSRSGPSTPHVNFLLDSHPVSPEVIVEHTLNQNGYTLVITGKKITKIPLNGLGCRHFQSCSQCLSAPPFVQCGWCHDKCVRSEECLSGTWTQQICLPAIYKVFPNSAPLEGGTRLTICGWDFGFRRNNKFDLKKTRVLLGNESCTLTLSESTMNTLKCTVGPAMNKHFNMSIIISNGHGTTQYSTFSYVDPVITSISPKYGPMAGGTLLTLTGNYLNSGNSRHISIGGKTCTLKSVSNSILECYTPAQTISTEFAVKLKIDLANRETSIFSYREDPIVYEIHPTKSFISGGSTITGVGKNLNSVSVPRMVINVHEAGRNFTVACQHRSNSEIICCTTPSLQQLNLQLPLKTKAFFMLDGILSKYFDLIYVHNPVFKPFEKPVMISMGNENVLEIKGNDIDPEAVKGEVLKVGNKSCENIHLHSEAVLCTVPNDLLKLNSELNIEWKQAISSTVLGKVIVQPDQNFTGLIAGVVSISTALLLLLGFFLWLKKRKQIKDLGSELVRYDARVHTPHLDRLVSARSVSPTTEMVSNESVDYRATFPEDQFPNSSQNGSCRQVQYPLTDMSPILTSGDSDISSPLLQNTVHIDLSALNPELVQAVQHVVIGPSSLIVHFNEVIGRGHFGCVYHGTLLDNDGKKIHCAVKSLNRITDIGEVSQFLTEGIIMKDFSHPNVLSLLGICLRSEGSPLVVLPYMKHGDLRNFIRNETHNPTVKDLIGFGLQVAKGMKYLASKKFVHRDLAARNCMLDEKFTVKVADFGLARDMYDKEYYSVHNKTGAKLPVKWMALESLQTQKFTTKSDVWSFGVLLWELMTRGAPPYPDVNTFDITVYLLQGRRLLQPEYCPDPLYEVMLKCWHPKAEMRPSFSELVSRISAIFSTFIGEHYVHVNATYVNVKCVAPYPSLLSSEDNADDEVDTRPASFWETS

SMILES: COCC(=O)NC/C=C/c1ccc2ncnc(Nc3ccc(Oc4ccc(C)nc4)c(C)c3)c2c1 [CP-724714]
% of control [1]: 100%
% of control [2]: 88%

SMILES: Nc1cnc(N2CCc3cc(S(=O)(=O)Nc4c(F)cc(Cl)cc4F)cc(N4CCCC4=O)c32)nc1 [TP-020n]
% of control [3]: 78%

% of control [4]: 7.3%
% of control [5]: 25%
SMILES: CCc1ccccc1C(=O)Nc1n[nH]c2c(C)c(F)c(C3C(C#N)=C(C)N(C)C(C)=C3C#N)cc12 [BAY-3827]

SMILES: O=C(NOC[C@H](O)CO)c1ccc(F)c(F)c1Nc1ccc(I)cc1F
% of control [6]: 100%
